Assay results as given in patent EP0561850B1, “7-SUBSTITUTED-6-FLUORO-1,4-DIHYDRO-4-OXO-QUINOLINE-3-CARBOXYLIC ACID COMPOUNDS USEFUL AS ANTIBACTERIAL AGENTS” (priority 1990, dated 1992).
Converted amounts (≈) assume the structure as drawn. Where a name gives a salt, the structure may show the parent alone. Read-outs that look alike come from different tables or passages of the source.

What was measured:
[1] = tested on: Staphylococcus aureus S-127; assay: In vitro antimicrobial activity against aerobes, broth microdilution (NCCLS 1985); type: cell-based; conditions: S127, read after 16-18 hours
Method: For aerobic microorganisms, a cation supplemented Mueller Hinton Broth (BBL) was used whereas the Anaerobe Broth MIC (Difco) was used for anaerobic microorganisms. An agar Dilution method was employed for certain aerobic microorganisms using Mueller Hinton II Agar (BBL) and a Cathra multipoint inoculating device which delivered 10^4 cfu/spot of the inoculum on the agar surface. MICs were read after 16-18 hours and 48 hours of incubation in case of microbes growing aerobically and anaerobically respectively.

[2] = tested on: Enterobacter cloacae S-130; assay: Microbroth dilution (MHB) method, NCCLS M7-A2; type: cell-based; conditions: 35 °C/18 hr
Method: (§1) The test organisms were obtained from ATCC and clinical laboratories. The 96-well microtitre plates containing […] of serially diluted test compounds in Mueller Hinton Broth (MHB) (conc. range 64-0.03 µg/ml) were inoculated with […] of bacterial suspension in MHB so that an inoculum size of 5 x 10^5 cfu/ml was achieved.
(§2) EC. (S- 63): Eschericia coli Ecl. (S- 130): Enterobacter cloacae Pa. (S- 67): Pseudomonas aeruginosa Kp. (S- 80): Klebsiella pneumoniae Pr.
(§3) Microbroth Dilution (MHB) method; Inoculum, 5 x 10^5 cfu/ml; Incubation 35 °C/18 hr

Eschericia coli S-63 = assay: Microbroth dilution (MHB) method, NCCLS M7-A2; type: cell-based; conditions: Ec S-63, inoculum 5 x 10^5 cfu/ml, 35 °C/18 hr
Method: as §1, §2, §3

[3] = tested on: Klebsiella pneumoniae S-80; assay: Microbroth dilution (MHB) method, NCCLS M7-A2; type: cell-based; conditions: Kp S-80, MHB, inoculum 5 x 10^5 cfu/ml, 35 °C/18 hr
Method: as §1, §2, §3

[4] = tested on: Providencia rettgeri S-121; assay: Microbroth dilution (MHB) method, NCCLS M7-A2; type: cell-based; conditions: 35 °C/18 hr
Method: as §1, §2, §3

[5] = tested on: Pseudomonas aeruginosa S-67; assay: Microbroth dilution (MHB) method, NCCLS M7-A2; type: cell-based; conditions: Pa S-67, MHB, inoculum 5 x 10^5 cfu/ml, 35 °C/18 hr
Method: as §1, §2, §3

[6] = tested on: Staphylococcus aureus S-127; assay: Microbroth dilution (MHB) method, NCCLS M7-A2; type: cell-based; conditions: 35 °C/18 hr
Method: as §1, §2, §3

Sa 127M = assay: Microbroth dilution (MHB) method, NCCLS M7-A2; type: cell-based, Staphylococcus aureus; conditions: inoculum 5 x 10^5 cfu/ml, 35 °C/18 hr
Method: as §1, §2, §3

[7] = Enterobacter cloacae, S130, Ecl S-130, inoculum 5 x 10^5 cfu/ml, read-out: MIC
[8] = Klebsiella pneumoniae, S80, read-out: MIC
[9] = Providencia rettgeri, S121, Pr S-121, inoculum 5 x 10^5 cfu/ml, read-out: MIC
[10] = Pseudomonas aeruginosa, S67, read-out: MIC
[11] = Staphylococcus aureus, S127, Sa S-127, inoculum 5 x 10^5 cfu/ml, read-out: MIC
[12] = Staphylococcus aureus, read-out: MIC
[13] = Ecl S-130, inoculum 5 x 10^5 cfu/ml
[14] = Pr S-121, inoculum 5 x 10^5 cfu/ml
[15] = Sa S-127, inoculum 5 x 10^5 cfu/ml

| Molecule | MIC [1] | MIC [2, 7] | MIC (Eschericia coli S-63; read-out: MIC) | MIC [3, 8] | MIC [4, 9] | MIC [5, 10] | MIC [6, 11] | MIC (Sa 127M; [12]) | also measured |
| --- | --- | --- | --- | --- | --- | --- | --- | --- | --- |
| Nc1c(F)c(N2CC[C@@H](n3ccnn3)C2)c(F)c2c1c(=O)c(C(=O)O)cn2-c1ccc(F)cc1F [Example 16, 5-Amino-1-(2,4-difluorophenyl)-6,8-difluoro-7-[3R-(1,2,3-triazol-1-yl)-pyrrolidin-1-yl]-1,4-dihydro-4-oxo-quinoline-3-carboxylic acid] | 0.015 µg/mL (≈ 0.0307 µM) |  |  |  |  |  |  |  |  |
| CCOC(=O)c1cn(C2CC2)c2nc(N3C[C@@H](N)[C@@H](n4ccnn4)C3)c(F)cc2c1=O (relative stereo) [Example 6, Ethyl 7-[cis-3-amino-4-(1,2,3-triazol-1-yl)pyrrolidin-1-yl] -1-cyclopropyl-6-fluoro-1,4-dihydro-4-oxo-1,8-naphthyridine-3-carboxylate] | ≤ 0.03 µg/mL |  |  |  |  |  |  |  |  |
| NC1CN(c2nc3c(cc2F)c(=O)c(C(=O)O)cn3C2CC2)CC1n1ccnn1 (stereo not drawn) [Example 7, 7-[cis-3-Amino-4-(1,2,3-triazol-1-yl)pyrrolidin-1-yl]-1-cyclopropyl-6-fluoro-1,4-dihdyro-4-oxo-1,8-naphthyridine-3-carboxylic acid hydrochloride] | 0.008 µg/mL |  |  |  |  |  |  |  |  |
| O=C(O)c1cn(-c2ccc(F)cc2)c2c(F)c(N3CCC(n4ccnn4)C3)c(F)cc2c1=O (centres unmarked) [Example 2, 6,8-Difluoro-1-(4-fluorophenyl)-7-[3-(1,2,3-triazol-1-yl)-pyrrolidin-1-yl]-1,4-dihydro-4-oxo-quinoline-3-carboxylic acid] | ≤ 0.06 µg/mL |  |  |  |  |  |  |  |  |
| CCOC(=O)c1cn(C2CC2)c2nc(N3CC[C@H](n4ccnn4)C3)c(F)cc2c1=O [Example 4, Ethyl 1-cyclopropyl-6-fluoro-7-[3(S)-(1,2,3-triazol-1-yl)pyrrolidin-1-yl]-1,4-dihydro-4-oxo-1,8-naphthyridine-3-carboxylate] | ≤ 0.06 µg/mL |  |  |  |  |  |  |  |  |
| Nc1c(F)c(N2CC[C@@H](n3ccnn3)C2)c(F)c2c1c(=O)c(C(=O)O)cn2C1CC1 [Example 13, 5-Amino-1-cyclopropyl-6,8-difluoro-7-[3R-(1,2,3-triazol-1-yl)-pyrrolidin-1-yl)-1,4-dihydro-4-oxo-quinoline-3-carboxylic acid] | 0.008 µg/mL (≈ 0.0192 µM) |  |  |  |  |  |  |  |  |
| Nc1c(F)c(N2C[C@@H](N)[C@@H](n3ccnn3)C2)c(F)c2c1c(=O)c(C(=O)O)cn2C1CC1 (relative stereo) [Example 18, 5-Amino-7-[cis-3-amino-4-(1,2,3-triazol-1-yl)-pyrrolidin-1-yl]-1-cyclopropyl-6,8-difluoro-1,4-dihydro-4-oxo-quinoline-3-carboxylic acid] | 0.5 µg/mL (≈ 1.16 µM) |  |  |  |  |  |  |  |  |
| Cc1cn(C2CCN(c3c(F)cc4c(=O)c(C(=O)O)cn5c4c3OC[C@@H]5C)C2)nn1 (single isomer, unassigned; (-)) [Example 39] |  | 1 µg/mL (≈ 2.42 µM) | 0.25 µg/mL (≈ 0.605 µM) | 1 µg/mL (≈ 2.42 µM) | 1 µg/mL (≈ 2.42 µM) | 8 µg/mL (≈ 19.4 µM) | 0.03 µg/mL (≈ 0.0726 µM) | 0.12 µg/mL (≈ 0.29 µM) |  |
| N,N,N-Trimethyl-N-(2-hydroxyethyl)ammonium-1-cyclopropyl-6,8-difluoro-7-[3-(1,2,4-triazol-1-yl)pyrrolidin-1-yl]-1,4-dihydro-4-oxo-quinoline-3-carboxylate [Example 37] |  |  |  |  |  |  |  |  | MIC [2, 13]: 2 µg/mL; MIC (Eschericia coli S-63): .5 µg/mL; MIC [3]: 1 µg/mL; MIC [4, 14]: 1 µg/mL; MIC [5]: 8 µg/mL; MIC [6, 15]: .06 µg/mL; MIC (Sa 127M): .25 µg/mL |
| N,N,N-Trimethyl-N-(2-hydroxyethyl) ammonium 1- cyclopropyl-6,8-difluoro-7-[3-(4-methyl-1,2,3-triazol-1-yl)pyrrolidin-1-yl]-1,4-dihydro-4-oxo-quinoline-3-carboxylate [Example 35] |  |  |  |  |  |  |  |  | MIC [2, 13]: .5 µg/mL; MIC (Eschericia coli S-63): .25 µg/mL; MIC [3]: .25 µg/mL; MIC [4, 14]: .25 µg/mL; MIC [5]: 4 µg/mL; MIC [6, 15]: ≤.015 µg/mL; MIC (Sa 127M): .03 µg/mL |
| O=C(O)c1cn(C2CC2)c2nc(N3CC[C@H](n4ccnn4)C3)c(F)cc2c1=O [Example 5] | ≤ 0.03 µg/mL |  |  |  |  |  |  |  |  |
| Cc1c(F)c(N2CCC(n3cc(-c4ccccc4)nn3)C2)c(F)c2c1c(=O)c(C(=O)O)cn2C1CC1 (centres unmarked) [Example 48, 1-cyclopropyl-6,8-difluoro-5-methyl-7-[3(4-phenyl-1,2,3-triazol-1-yl)-pyrrolidin-1-yl]-1,4-dihydro-4-oxo-quinoline-3-carboxylic acid] |  | 4 µg/mL (≈ 8.14 µM) | 1 µg/mL (≈ 2.03 µM) | 4 µg/mL (≈ 8.14 µM) | 0.015 µg/mL (≈ 0.0305 µM) | 16 µg/mL (≈ 32.6 µM) | 0.015 µg/mL (≈ 0.0305 µM) | 0.015 µg/mL (≈ 0.0305 µM) |  |
| Cc1cn(C2CCN(c3c(F)c(C)c4c(=O)c(C(=O)O)cn(C5CC5)c4c3F)C2)nn1 (centres unmarked) [Example 21, 1-Cyclopropyl-6,8-difluoro-5-methyl-7-[3-(4-methyl-1,2,3-triazol-1-yl)pyrrolidin-1-yl]-1,4-dihydro-4-oxo-quinoline-3-carboxylic acid] |  | 0.25 µg/mL (≈ 0.582 µM) | 0.06 µg/mL (≈ 0.14 µM) | 0.25 µg/mL (≈ 0.582 µM) | 0.12 µg/mL (≈ 0.279 µM) | 2 µg/mL (≈ 4.66 µM) | 0.015 µg/mL (≈ 0.0349 µM) | 0.015 µg/mL (≈ 0.0349 µM) |  |
| Nc1c(F)c(N2C[C@@H](N)[C@@H](n3ccnn3)C2)c(F)c2c1c(=O)c(C(=O)O)cn2-c1ccc(F)cc1F (relative stereo) [Example 19, 5-Amino-7-[cis-3-amino-4-(1,2,3-triazol-1-yl)-pyrrolidin-1-yl]-1-(2,4-difluorophenyl)-6,8-difluoro-1,4-dihydro-4-oxo-quinoline-3-carboxylic acid] | 0.5 µg/mL (≈ 0.993 µM) |  |  |  |  |  |  |  |  |
| O=C(O)c1cn(C2CC2)c2c(F)c(N3CCC(n4ccnn4)C3)c(F)c(F)c2c1=O (centres unmarked) [Example 49, 1-cyclopropyl-5,6,8-trifluoro-7-[3-(1,2,3-triazol-1-yl)-pyrrolidin-1-yl]-1,4-dihydro-4-oxo-quinoline-3-carboxylic acid] |  | 0.5 µg/mL (≈ 1.19 µM) | 0.5 µg/mL (≈ 1.19 µM) | 0.5 µg/mL (≈ 1.19 µM) | 0.12 µg/mL (≈ 0.286 µM) | 8 µg/mL (≈ 19.1 µM) | 0.25 µg/mL (≈ 0.596 µM) | 0.25 µg/mL (≈ 0.596 µM) |  |
| Cc1c(F)c(N2CCC(n3cncn3)C2)c(F)c2c1c(=O)c(C(=O)O)cn2C1CC1 (centres unmarked) [Example 23, 1-Cyclopropyl-6,8-difluoro-5-methyl-7-[3-(1,2,4-triazol-1-yl)pyrrolidin-1-yl]-1,4-dihydro-4-oxo-quinoline-3-carboxylic acid] |  | 0.25 µg/mL (≈ 0.602 µM) | 0.12 µg/mL (≈ 0.289 µM) | 0.5 µg/mL (≈ 1.2 µM) | 0.5 µg/mL (≈ 1.2 µM) | 4 µg/mL (≈ 9.63 µM) | ≤ 0.015 µg/mL | ≤ 0.015 µg/mL |  |
| O=C(O)c1cn(C2CC2)c2c(F)c(N3CCC(n4cc(-c5ccccc5)nn4)C3)c(F)cc2c1=O (centres unmarked) [Example 46, 1-cyclopropyl-6,8-difluoro-7-[3-(4-phenyl-1,2,3-triazol-1-yl)-pyrrolidin-1-yl]-1,4-dihydro-4-oxo-quinoline-3-carboxylic acid] |  | 1 µg/mL (≈ 2.09 µM) | 0.25 µg/mL (≈ 0.524 µM) | 1 µg/mL (≈ 2.09 µM) | 0.015 µg/mL (≈ 0.0314 µM) | 32 µg/mL (≈ 67 µM) | 0.015 µg/mL (≈ 0.0314 µM) | 0.015 µg/mL (≈ 0.0314 µM) |  |
| Cc1c(F)c(N2CCC(n3ccnn3)C2)c(F)c2c1c(=O)c(C(=O)O)cn2C1CC1 (centres unmarked) [Example 24, 1-Cyclopropyl-6,8-difluoro-5-methyl-7-[3-(1,2,3-triazol-1-yl)pyrrolidin-1-yl]-1,4-dihydro-4-oxo-quinoline-3-carboxylic acid] |  | 0.25 µg/mL (≈ 0.602 µM) | 0.12 µg/mL (≈ 0.289 µM) | 0.5 µg/mL (≈ 1.2 µM) | 0.5 µg/mL (≈ 1.2 µM) | 4 µg/mL (≈ 9.63 µM) | ≤ 0.015 µg/mL | ≤ 0.015 µg/mL |  |
| Cc1cnnn1C1CCN(c2c(F)cc3c(=O)c(C(=O)O)cn(C4CC4)c3c2F)C1 (centres unmarked) [Example 22, 1-Cyclopropyl-6,8-difluoro-7-[3-(5-methyl-1,2,3-triazol-1-yl)pyrrolidin-1-yl]-1,4-dihydro-4-oxo-quinoline-3-carboxylic acid] |  | 0.25 µg/mL (≈ 0.602 µM) | 0.25 µg/mL (≈ 0.602 µM) | 0.5 µg/mL (≈ 1.2 µM) | 0.25 µg/mL (≈ 0.602 µM) | 4 µg/mL (≈ 9.63 µM) | ≤ 0.015 µg/mL | 0.12 µg/mL (≈ 0.289 µM) |  |
| C[C@H]1COc2c(N3CCC(n4cncn4)C3)c(F)cc3c(=O)c(C(=O)O)cn1c23 (single isomer, unassigned; (-)) [Example 40] |  | 1 µg/mL (≈ 2.5 µM) | 1 µg/mL (≈ 2.5 µM) | 1 µg/mL (≈ 2.5 µM) | 0.5 µg/mL (≈ 1.25 µM) | 8 µg/mL (≈ 20 µM) | 1 µg/mL (≈ 2.5 µM) | 0.5 µg/mL (≈ 1.25 µM) |  |
